Converted amounts (≈) assume the structure as drawn. Like-named read-outs stand apart in the source and are kept apart here. Non-standard residues stand in square brackets, D forms with d. Residues, ends and D or L forms follow the SMILES beside them. ξ: configuration not given here. Trp(5-F) = N[C@@H](Cc1c[nH]c2ccc(F)cc12)C(=O)O; dTrp(5-F) = N[C@H](Cc1c[nH]c2ccc(F)cc12)C(=O)O; ξTrp(5-OMe) = COc1ccc2[nH]cc(CC(N)C(=O)O)c2c1
Legend:
Assay type in all cases: cell-based
[1] = test system: tested bacteria (ESKAPE pathogens, Listeria monocytogenes, Salmonella enterica)
Excerpt: (§1) The bacterial strains for the antimicrobial assay were obtained from the ATCC (American Type Culture Collection, Manassas, VA, USA) and NCTC (National Collection of Type Cultures, Salisbury, UK). Gram-negative strains were Pseudomonas aeruginosa (ATCC 27853), Escherichia coli (ATCC 8739, ATCC 35218, and ATCC 25922), Salmonella enterica (ATCC 13076), Klebsiella pneumoniae (NCTC 13440), Acinetobacter baumannii (ATCC 17978) and the Gram-positive strains were Enterococcus faecalis (ATCC 29212), Listeria monocytogenes (ATCC 19111), and Staphylococcus aureus (HNCMO112011 and ATCC 25923).
(§2) Determination of antibacterial activity for the peptides was carried out by utilizing a minimum bactericidal concentration (MBC) bioassay. Synthesized peptides were dissolved in sterile water and used from 25 to 0.125 μM in 2-fold dilution series and incubated with ~10^7 log phase bacteria in Potassium-Phosphate Buffer (PPB, pH: 7.4) for three hours as described earlier. After that, 5 μl of each sample was placed on LB agar and the growth of bacteria was monitored after overnight incubation at 37 °C. The lowest concentration of the antimicrobial agents that completely eliminated viable bacteria was considered the minimal bactericidal concentration (MBC).

[2] = test system: Acinetobacter baumannii (ATCC 17978); conditions: ATCC 17978, 3 h, pH 7.4
Excerpt: as §1, §2

[3] = test system: Klebsiella pneumoniae (NCTC 13440)
Excerpt: as §1, §2

[4] = test system: Staphylococcus aureus (HNCMO112011); conditions: HNCMO112011, 3 h, pH 7.4
Excerpt: as §1, §2

[5] = test system: Listeria monocytogenes (ATCC 19111); conditions: ATCC 19111, 3 h, pH 7.4
Excerpt: as §1, §2

[6] = test system: Salmonella enterica (ATCC 13076); conditions: ATCC 13076, 3 h, pH 7.4
Excerpt: as §1, §2

[7] = test system: Enterococcus faecalis (ATCC 29212); conditions: ATCC 29212, 3 h, pH 7.4
Excerpt: as §1, §2

[8] = test system: Pseudomonas aeruginosa (ATCC 27853)
Excerpt: as §1, §2

[9] = test system: Escherichia coli (ATCC 8739); conditions: ATCC 8739, 3 h, pH 7.4
Excerpt: as §1, §2

[10] = summary over the tested bacterial species, 3 h in PPB pH 7.4

Row | SMILES | MBC against most or all of the tested bacteria [1, 10] | Minimal bactericidal concentration (MBC) A. b. [2] | Minimal bactericidal concentration (MBC) K. p. ([3]; NCTC 13440, 3 h, pH 7.4) | Minimal bactericidal concentration (MBC) S. a. [4] | Minimal bactericidal concentration (MBC) L. m. [5] | Minimal bactericidal concentration (MBC) S. e. [6] | Minimal bactericidal concentration (MBC) E. f. [7] | Minimal bactericidal concentration (MBC) P. a. ([8]; ATCC 27853, 3 h, pH 7.4) | Minimal bactericidal concentration (MBC) E. c. [9] | MBC against most or all of the tested bacteria ([1]; 3 h, pH 7.4) | Minimal bactericidal concentration (MBC) K. p. ([3]; Klebsiella pneumoniae NCTC 13440, ~10^7 log phase bacteria, 3 h in PPB pH 7.4, peptide 25 to 0.125 μM 2-fold series, plated on LB agar, overnight 37 °C) | Minimal bactericidal concentration (MBC) P. a. ([8]; Pseudomonas aeruginosa ATCC 27853, ~10^7 log phase bacteria, 3 h in PPB pH 7.4, peptide 25 to 0.125 μM 2-fold series, plated on LB agar, overnight 37 °C)
1 | CC[C@H](C)[C@H](NC(=O)[C@H](CCCCN)NC(=O)[C@H](Cc1ccccc1)NC(=O)[C@H](CC(C)C)NC(=O)[C@@H]1CCCN1C(=O)[C@H](CCCCN)NC(=O)[C@H](CCCCN)NC(=O)[C@H](CO)NC(=O)[C@@H](N)CCCCN)C(=O)N[C@H](Cc1c[nH]c2ccc(F)cc12)C(=O)N[C@@H](CCCCN)C(=O)N[C@@H](CO)C(=O)N[C@H](C(=O)N[C@@H](CCC(=O)O)C(=O)N[C@@H](CC(N)=O)C(=O)N[C@H](C(=O)N[C@@H](CO)C(=O)N[C@H](C(=O)N[C@@H](CC(C)C)C(=O)N[C@@H](Cc1c[nH]c2ccccc12)C(=O)N[C@@H](Cc1ccc(O)cc1)C(=O)N[C@@H](CCCCN)C(N)=O)C(C)C)C(C)C)C(C)C [NCR169C17–38C12,17/S-10W^5-F-D] (H-KSKKPLFKI[dTrp(5-F)]KSVENVSVLWYK-NH2; N-terminus assumed) | 1.6—6.3 µM | 1.6 µM (≈ 4.36 µg/mL) | 3.1 µM (≈ 8.45 µg/mL) | 3.1 µM (≈ 8.45 µg/mL) | 6.3 µM (≈ 17.2 µg/mL) | 3.1 µM (≈ 8.45 µg/mL) | 1.6 µM (≈ 4.36 µg/mL) | 3.1 µM (≈ 8.45 µg/mL) | 1.6 µM (≈ 4.36 µg/mL) | – | – | –
2 | CC[C@H](C)[C@H](NC(=O)[C@H](CCCCN)NC(=O)[C@H](Cc1ccccc1)NC(=O)[C@H](CC(C)C)NC(=O)[C@@H]1CCCN1C(=O)[C@H](CCCCN)NC(=O)[C@H](CCCCN)NC(=O)[C@H](CO)NC(=O)[C@@H](N)CCCCN)C(=O)N[C@@H](Cc1c[nH]c2ccc(F)cc12)C(=O)N[C@@H](CCCCN)C(=O)N[C@@H](CO)C(=O)N[C@H](C(=O)N[C@@H](CCC(=O)O)C(=O)N[C@@H](CC(N)=O)C(=O)N[C@H](C(=O)N[C@@H](CO)C(=O)N[C@H](C(=O)N[C@@H](CC(C)C)C(=O)N[C@@H](Cc1c[nH]c2ccccc12)C(=O)N[C@@H](Cc1ccc(O)cc1)C(=O)N[C@@H](CCCCN)C(N)=O)C(C)C)C(C)C)C(C)C [NCR169C17–38C12,17/S-10W^5-F-L] (H-KSKKPLFKI[Trp(5-F)]KSVENVSVLWYK-NH2; N-terminus assumed) | 1.6—6.3 µM | 1.6 µM (≈ 4.36 µg/mL) | 3.1 µM (≈ 8.45 µg/mL) | 1.6 µM (≈ 4.36 µg/mL) | 1.6 µM (≈ 4.36 µg/mL) | 1.6 µM (≈ 4.36 µg/mL) | 1.6 µM (≈ 4.36 µg/mL) | 1.6 µM (≈ 4.36 µg/mL) | 1.6 µM (≈ 4.36 µg/mL) | 1.6 µM | 3.1 µM (≈ 8.45 µg/mL) | –
3 | CC[C@H](C)[C@H](NC(=O)[C@H](CCCCN)NC(=O)[C@H](Cc1ccccc1)NC(=O)[C@H](CC(C)C)NC(=O)[C@@H]1CCCN1C(=O)[C@H](CCCCN)NC(=O)[C@H](CCCCN)NC(=O)[C@H](CO)NC(=O)[C@@H](N)CCCCN)C(=O)NC(Cc1c[nH]c2ccc(OC)cc12)C(=O)N[C@@H](CCCCN)C(=O)N[C@@H](CO)C(=O)N[C@H](C(=O)N[C@@H](CCC(=O)O)C(=O)N[C@@H](CC(N)=O)C(=O)N[C@H](C(=O)N[C@@H](CO)C(=O)N[C@H](C(=O)N[C@@H](CC(C)C)C(=O)N[C@@H](Cc1c[nH]c2ccccc12)C(=O)N[C@@H](Cc1ccc(O)cc1)C(=O)N[C@@H](CCCCN)C(N)=O)C(C)C)C(C)C)C(C)C (some centres unmarked) [NCR169C17–38C12,17/S-10W^5-MeO II] (H-KSKKPLFKI[ξTrp(5-OMe)]KSVENVSVLWYK-NH2; N-terminus assumed) | – | 3.1 µM (≈ 8.49 µg/mL) | 3.1 µM (≈ 8.49 µg/mL) | 3.1 µM (≈ 8.49 µg/mL) | 3.1 µM (≈ 8.49 µg/mL) | 3.1 µM (≈ 8.49 µg/mL) | 3.1 µM (≈ 8.49 µg/mL) | – | 3.1 µM (≈ 8.49 µg/mL) | 3.1 µM | – | 25 µM (≈ 68.4 µg/mL)

Source: PMC9917201, “Enhanced Antibacterial Activity of Substituted Derivatives of NCR169C Peptide” (International Journal of Molecular Sciences, 2023)
